Test results as given in paper PMC11378297, “Discovery and Profiling of New Multimodal Phenylglycinamide Derivatives as Potent Antiseizure and Antinociceptive Drug Candidates” (ACS Chemical Neuroscience, 2024).
Like-named read-outs stand apart in the source and are kept apart here. Values belong to the molecule of their own block, whether it stands above or below them.

How the values were obtained:
[1] = test system: STZ-induced tactile allodynia, mice; test: streptozotocin (STZ)-induced peripheral neuropathy, von Frey test; type: in vivo, mouse; conditions: 21 days after STZ
Source text: To test whether the compounds are active in the neuropathic pain resulting from another mechanism of neuronal injury, we tested them in streptozotocin (STZ)-induced neuropathy. STZ is the commonly used experimental model to induce diabetic neuropathy. Streptozotocin is toxic to insulin-producing beta cells in the pancreas and selectively damages these cells, leading to insulin deficiency, which subsequently results in chronic hyperglycemia. Hyperglycemia is a major factor in the development of diabetic neuropathy. Elevated blood glucose levels increase its uptake by nerve cells, which results in metabolic and oxidative stress. Moreover, hyperglycemia leads to the formation of advanced glycation end products (AGEs), which are abnormal protein structures. AGEs can accumulate in neuronal tissue and contribute to nerve dysfunction.[63] […] Additionally, STZ-induced neuropathic pain may also involve alterations in the levels of neurotransmitters such as glutamate and GABA.[64],[65]
Each animal was tested only once. […] Behavioral measurements were observed by trained observers.

[2] = test system: capsaicin-induced pain, mice; test: capsaicin-induced pain test; type: in vivo; conditions: Mus musculus, ip, 30 min before capsaicin
[3] = test system: 6 Hz (44 mA) seizures, mice; test: 6 Hz (44 mA) seizure test; type: in vivo; conditions: Mus musculus, ip, pretreatment time 0.5 h
[4] = molecular target: T1, Voltage-Gated Sodium channel hNav1.3 (Homo sapiens, UniProt Q9NY46); test: human sodium ion channel cell based automated patch clamp assay, hNav1.3
T1 construct: Eurofins Discovery (St. Charles, MO, USA)
Description: (§1) Therefore, as a part of the more detailed functional characterization using automated patch clamp method, we tested the influence of (R)-32 on sodium currents mediated by several Navx channels comprising 5 different human subunits, namely, Nav1.1, Nav1.2, Nav1.3, Nav1.6, and Nav1.7, which are involved in both seizure and/or pain modulation.[74],[80],[81] As summarized in Tables S4–S8, (R)-32 starting from 10 μM effectively and in concentration-dependent manner decreased sodium currents mediated by all aforementioned sodium channel subunits. Furthermore, (R)-32 appeared to bind exclusively to sodium channels that are in an inactivated state (see pulse 2 in Tables S4–S8), but not to the channels that are in an open state (pulse 1) (for additional details, see Supporting Information).
(§2) Human sodium ion channels cell based automated patch clamp assay
(§3) Human sodium ion channels cell based automated patch clamp assays: sodium channels exist in, a) a resting or closed state at -120 mV, b) a transient open state that inactivates to c) inactivated state at -10 mV. Sodium current inhibition within 1-2 ms of channel opening at 0 mV is open channel inhibition (pulse 1). In order to completely inactivate the sodium channels and facilitate inactivated state-dependent binding of the drug, the channels were kept at […] ( -10 mV) longer (pulsed for 500 ms) and then stepped back to -120 mV for 10 ms to recover from inactivation into resting or closed state (but the channels that had drug bound to them will not recover from inactivation and will not open) before stepping to -10 mV for 50 ms (pulse 2) to mea sure sodium channels that are available to open. The higher inhibition seen at pulse 2 is due to inactivated state -dependent inhibition. Pulse 1 and 2 are used to investigate drug binding to the open state and inactivated state of the Na channels, respectively. Each concentration of compound is applied for 5 minutes. The results obtained for (R)-32 are summerized in Tables S4–S8. […]
(§4) Compound Concentration Measurement % Inhibition
(§5) Data interpretation: Results showing inhibition greater than 50% are considered to represent significant effects of test compound and have been bolded for (R)-32 for better visualization. The studies were carried out in Eurofins Discovery (St. Charles, MO, USA).

[5] = molecular target: T2, Voltage-Gated Sodium channel hNav1.2 (Homo sapiens, UniProt Q99250); test: human sodium ion channel cell based automated patch clamp assay, hNav1.2
T2 construct: Eurofins Discovery (St. Charles, MO, USA)
Description: as §1, §2, §3, §4, §5

[6] = hNav1.3, Pulse 1 (open state), read-out: % Inhibition Mean
[7] = hNav1.3, Pulse 1 (open state), read-out: % Inhibition n1
[8] = hNav1.3, Pulse 1 (open state), read-out: % Inhibition n2
[9] = hNav1.3, Pulse 2 (inactivated state), read-out: % Inhibition Mean
[10] = hNav1.3, Pulse 2 (inactivated state), read-out: % Inhibition n1
[11] = hNav1.3, Pulse 2 (inactivated state), read-out: % Inhibition n2
[12] = hNav1.2, Pulse 1 (open state), read-out: % Inhibition Mean
[13] = hNav1.2, Pulse 1 (open state), read-out: % Inhibition n1
[14] = hNav1.2, Pulse 1 (open state), read-out: % Inhibition n2
[15] = hNav1.2, Pulse 2 (inactivated state), read-out: % Inhibition Mean
[16] = hNav1.2, Pulse 2 (inactivated state), read-out: % Inhibition n1
[17] = hNav1.2, Pulse 2 (inactivated state), read-out: % Inhibition n2

T1 sequence (Q9NY46 whole entry): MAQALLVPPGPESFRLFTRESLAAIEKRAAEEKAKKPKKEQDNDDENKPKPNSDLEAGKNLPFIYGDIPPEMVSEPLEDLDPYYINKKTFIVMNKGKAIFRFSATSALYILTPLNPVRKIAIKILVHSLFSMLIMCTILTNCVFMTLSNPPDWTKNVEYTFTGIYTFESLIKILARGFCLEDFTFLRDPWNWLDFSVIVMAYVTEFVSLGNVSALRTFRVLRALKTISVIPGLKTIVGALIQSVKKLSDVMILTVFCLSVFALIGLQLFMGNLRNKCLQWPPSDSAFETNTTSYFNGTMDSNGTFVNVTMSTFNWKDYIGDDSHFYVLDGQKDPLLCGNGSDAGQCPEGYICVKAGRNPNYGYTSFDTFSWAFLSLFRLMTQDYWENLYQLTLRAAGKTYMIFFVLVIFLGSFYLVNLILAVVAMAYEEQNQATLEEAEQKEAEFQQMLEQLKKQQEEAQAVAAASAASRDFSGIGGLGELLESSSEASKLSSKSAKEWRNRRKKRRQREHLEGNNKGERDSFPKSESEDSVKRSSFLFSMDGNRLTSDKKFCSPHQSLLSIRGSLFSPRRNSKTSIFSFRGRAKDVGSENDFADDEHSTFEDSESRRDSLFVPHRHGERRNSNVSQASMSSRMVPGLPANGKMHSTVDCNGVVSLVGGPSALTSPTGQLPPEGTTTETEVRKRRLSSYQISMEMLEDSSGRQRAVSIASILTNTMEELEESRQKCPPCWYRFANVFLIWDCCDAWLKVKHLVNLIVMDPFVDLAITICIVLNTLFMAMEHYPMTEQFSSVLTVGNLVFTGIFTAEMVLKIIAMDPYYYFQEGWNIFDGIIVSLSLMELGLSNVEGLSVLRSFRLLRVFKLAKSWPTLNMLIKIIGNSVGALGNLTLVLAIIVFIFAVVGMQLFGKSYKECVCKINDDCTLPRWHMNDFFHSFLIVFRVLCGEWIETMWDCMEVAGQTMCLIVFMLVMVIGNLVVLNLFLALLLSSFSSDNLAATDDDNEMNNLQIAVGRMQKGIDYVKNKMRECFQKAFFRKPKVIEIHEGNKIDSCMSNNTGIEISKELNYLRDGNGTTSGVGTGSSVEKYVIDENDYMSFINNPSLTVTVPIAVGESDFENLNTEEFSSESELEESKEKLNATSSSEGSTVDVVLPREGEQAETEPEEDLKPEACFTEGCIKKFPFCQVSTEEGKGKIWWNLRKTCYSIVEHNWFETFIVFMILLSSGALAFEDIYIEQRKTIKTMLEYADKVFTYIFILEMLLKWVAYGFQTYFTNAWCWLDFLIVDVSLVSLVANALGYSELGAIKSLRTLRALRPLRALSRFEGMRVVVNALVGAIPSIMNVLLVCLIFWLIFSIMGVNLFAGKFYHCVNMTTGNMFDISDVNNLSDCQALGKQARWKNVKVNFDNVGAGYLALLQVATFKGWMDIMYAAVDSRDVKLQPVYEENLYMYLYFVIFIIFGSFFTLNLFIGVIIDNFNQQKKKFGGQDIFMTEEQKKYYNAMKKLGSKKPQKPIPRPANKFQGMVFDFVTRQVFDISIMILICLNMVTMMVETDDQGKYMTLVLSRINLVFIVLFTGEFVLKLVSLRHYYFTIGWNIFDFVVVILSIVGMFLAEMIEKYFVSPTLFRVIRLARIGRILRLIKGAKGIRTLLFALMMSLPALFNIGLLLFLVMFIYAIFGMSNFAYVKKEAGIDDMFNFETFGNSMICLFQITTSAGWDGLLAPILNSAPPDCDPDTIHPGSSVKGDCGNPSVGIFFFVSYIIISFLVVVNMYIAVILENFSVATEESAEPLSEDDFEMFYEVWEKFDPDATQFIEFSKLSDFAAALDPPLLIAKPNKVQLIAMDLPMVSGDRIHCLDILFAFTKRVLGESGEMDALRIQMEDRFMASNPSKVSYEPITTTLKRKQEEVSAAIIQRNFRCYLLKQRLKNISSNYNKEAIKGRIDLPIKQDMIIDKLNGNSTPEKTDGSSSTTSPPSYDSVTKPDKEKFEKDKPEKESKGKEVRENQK
T2 sequence (Q99250 whole entry): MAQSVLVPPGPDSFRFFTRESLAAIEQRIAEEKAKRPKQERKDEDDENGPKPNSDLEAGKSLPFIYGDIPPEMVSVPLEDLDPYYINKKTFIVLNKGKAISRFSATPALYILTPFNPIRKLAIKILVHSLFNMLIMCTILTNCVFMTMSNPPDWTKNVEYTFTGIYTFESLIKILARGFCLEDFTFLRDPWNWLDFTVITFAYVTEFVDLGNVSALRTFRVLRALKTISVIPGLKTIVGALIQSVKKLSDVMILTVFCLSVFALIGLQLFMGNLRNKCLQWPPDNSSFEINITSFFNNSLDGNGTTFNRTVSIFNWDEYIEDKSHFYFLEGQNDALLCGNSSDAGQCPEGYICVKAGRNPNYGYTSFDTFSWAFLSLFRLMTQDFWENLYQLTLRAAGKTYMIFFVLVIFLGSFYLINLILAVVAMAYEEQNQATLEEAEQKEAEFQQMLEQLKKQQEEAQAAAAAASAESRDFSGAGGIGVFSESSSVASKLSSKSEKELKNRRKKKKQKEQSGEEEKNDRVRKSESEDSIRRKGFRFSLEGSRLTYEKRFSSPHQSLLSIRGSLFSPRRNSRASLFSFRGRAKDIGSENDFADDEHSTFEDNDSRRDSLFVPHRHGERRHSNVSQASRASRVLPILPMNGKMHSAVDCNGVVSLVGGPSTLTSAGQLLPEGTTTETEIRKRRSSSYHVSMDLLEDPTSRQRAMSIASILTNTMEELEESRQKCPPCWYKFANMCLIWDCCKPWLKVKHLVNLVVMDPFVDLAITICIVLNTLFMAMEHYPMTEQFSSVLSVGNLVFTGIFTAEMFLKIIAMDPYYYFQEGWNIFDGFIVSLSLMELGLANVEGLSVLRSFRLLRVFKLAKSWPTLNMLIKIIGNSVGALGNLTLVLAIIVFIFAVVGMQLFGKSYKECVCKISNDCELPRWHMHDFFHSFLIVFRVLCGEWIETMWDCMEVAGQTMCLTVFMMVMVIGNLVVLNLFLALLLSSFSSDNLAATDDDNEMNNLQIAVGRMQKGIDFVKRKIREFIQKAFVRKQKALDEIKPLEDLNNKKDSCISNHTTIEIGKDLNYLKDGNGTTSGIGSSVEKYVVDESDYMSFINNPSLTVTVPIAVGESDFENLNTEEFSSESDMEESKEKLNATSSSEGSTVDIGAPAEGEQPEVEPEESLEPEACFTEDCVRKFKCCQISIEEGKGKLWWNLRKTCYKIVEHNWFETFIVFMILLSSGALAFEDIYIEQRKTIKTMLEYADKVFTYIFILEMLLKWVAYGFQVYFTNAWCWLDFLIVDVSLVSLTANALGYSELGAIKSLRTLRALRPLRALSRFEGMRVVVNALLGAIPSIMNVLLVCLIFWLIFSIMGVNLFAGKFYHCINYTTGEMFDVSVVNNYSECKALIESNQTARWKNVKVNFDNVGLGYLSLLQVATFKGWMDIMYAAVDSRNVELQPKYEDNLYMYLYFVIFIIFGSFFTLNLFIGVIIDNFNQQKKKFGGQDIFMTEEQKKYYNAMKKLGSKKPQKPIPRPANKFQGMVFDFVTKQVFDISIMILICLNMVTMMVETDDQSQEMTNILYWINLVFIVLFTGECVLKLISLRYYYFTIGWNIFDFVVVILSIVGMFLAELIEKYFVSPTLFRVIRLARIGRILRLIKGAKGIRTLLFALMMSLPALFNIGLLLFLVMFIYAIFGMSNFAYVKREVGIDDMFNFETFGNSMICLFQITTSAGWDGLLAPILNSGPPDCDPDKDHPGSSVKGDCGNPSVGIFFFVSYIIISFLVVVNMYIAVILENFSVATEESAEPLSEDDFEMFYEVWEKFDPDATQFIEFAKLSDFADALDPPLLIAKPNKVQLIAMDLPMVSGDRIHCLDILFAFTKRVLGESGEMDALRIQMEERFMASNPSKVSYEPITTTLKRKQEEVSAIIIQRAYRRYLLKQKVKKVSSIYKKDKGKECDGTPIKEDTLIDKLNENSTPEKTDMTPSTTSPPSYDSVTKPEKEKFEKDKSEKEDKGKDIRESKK

Compound: CC(=O)N[C@@H](C(=O)N1CCN(c2cccc(C(F)(F)F)c2)CC1)c1ccccc1 [(R)-31, (R)-N-(2-Oxo-1-phenyl-2-(4-(3-(trifluoromethyl)phenyl)piperazin-1-yl)ethyl)acetamide]
- pain threshold in STZ-induced neuropathy, % of the baseline ([1]; 25 mg/kg i.p.): did not observe any significant effects
- pain threshold in STZ-induced neuropathy, % of the baseline ([1]; 50 mg/kg i.p.): 123%
- pain threshold in STZ-induced neuropathy, % of the baseline ([1]; 100 mg/kg i.p.): 178%
- ED50 [2]: 53.9 mg/kg
- ED50 [3]: 44.2 mg/kg

- inhibition at 3 µM [4, 6]: 0.75%
- inhibition at 3 µM [4, 7]: 3.41%
- inhibition at 3 µM [4, 8]: -1.92%
- inhibition at 30 µM [4, 6]: 9.85%
- inhibition at 30 µM [4, 7]: 10.3%
- inhibition at 30 µM [4, 8]: 9.44%
- inhibition at 300 µM [4, 6]: 84.8%
- inhibition at 300 µM [4, 7]: 81.8%
- inhibition at 300 µM [4, 8]: 87.8%
- inhibition at 3 µM [4, 9]: 56.1%
- inhibition at 3 µM [4, 10]: 56.1%
- inhibition at 3 µM [4, 11]: 56.1%
- inhibition at 30 µM [4, 9]: 100%
- inhibition at 30 µM [4, 10]: 98.9%
- inhibition at 30 µM [4, 11]: 101%
- inhibition at 300 µM [4, 9]: 101%
- inhibition at 300 µM [4, 10]: 101%
- inhibition at 300 µM [4, 11]: 102%
- inhibition at 3 µM [5, 12]: -2.64%
- inhibition at 3 µM [5, 13]: 5.99%
- inhibition at 3 µM [5, 14]: -11.3%
- inhibition at 30 µM [5, 12]: 14%
- inhibition at 30 µM [5, 13]: 19%
- inhibition at 30 µM [5, 14]: 8.92%
- inhibition at 300 µM [5, 12]: 70%
- inhibition at 300 µM [5, 13]: 64.9%
- inhibition at 300 µM [5, 14]: 75.1%
- inhibition at 3 µM [5, 15]: 54.9%
- inhibition at 3 µM [5, 16]: 55.2%
- inhibition at 3 µM [5, 17]: 54.7%
- inhibition at 30 µM [5, 15]: 99.6%
- inhibition at 30 µM [5, 16]: 98.8%
- inhibition at 30 µM [5, 17]: 100%
- inhibition at 300 µM [5, 15]: 101%
- inhibition at 300 µM [5, 16]: 99.9%
- inhibition at 300 µM [5, 17]: 101%
Compound: CCCCNc1ccc(C(=O)OCCN(C)C)cc1 [Tetracaine, reference compound]

Compound: CC(=O)N[C@@H](C(=O)N1CCN(c2cccc(OC(F)(F)F)c2)CC1)c1ccccc1 [(R)-32, (R)-N-(2-Oxo-1-phenyl-2-(4-(3-(trifluoromethoxy)phenyl)piperazin-1-yl)ethyl)acetamide]
- pain threshold in STZ-induced neuropathy, % of the baseline ([1]; 25 mg/kg i.p.): 113%
- pain threshold in STZ-induced neuropathy, % of the baseline ([1]; 50 mg/kg i.p.): 120%
- pain threshold in STZ-induced neuropathy, % of the baseline ([1]; 100 mg/kg i.p.): 134%
- ED50 [2]: 20.2 mg/kg
- inhibition at 1 µM [4, 6]: -3.38%
- inhibition at 1 µM [4, 7]: -7.33%
- inhibition at 1 µM [4, 8]: 0.56%
- inhibition at 10 µM [4, 6]: -3.18%
- inhibition at 10 µM [4, 7]: -8.46%
- inhibition at 10 µM [4, 8]: 2.11%
- inhibition at 100 µM [4, 6]: 6.75%
- inhibition at 100 µM [4, 7]: 5.68%
- inhibition at 100 µM [4, 8]: 7.82%
- inhibition at 1 µM [4, 9]: -2.78%
- inhibition at 1 µM [4, 10]: -5.59%
- inhibition at 1 µM [4, 11]: 0.03%
- inhibition at 10 µM [4, 9]: 39.5%
- inhibition at 10 µM [4, 10]: 42.1%
- inhibition at 10 µM [4, 11]: 37%
- inhibition at 100 µM [4, 9]: 99.1%
- inhibition at 100 µM [4, 10]: 99.6%
- inhibition at 100 µM [4, 11]: 98.6%
- ED50 [3]: 26.5 mg/kg
- inhibition at 1 µM [5, 12]: 0.79%
- inhibition at 1 µM [5, 13]: 1.86%
- inhibition at 1 µM [5, 14]: -0.29%
- inhibition at 10 µM [5, 12]: 3.6%
- inhibition at 10 µM [5, 13]: 2.03%
- inhibition at 10 µM [5, 14]: 5.18%
- inhibition at 100 µM [5, 12]: 33.5%
- inhibition at 100 µM [5, 13]: 35.7%
- inhibition at 100 µM [5, 14]: 31.3%
- inhibition at 1 µM [5, 15]: 1.62%
- inhibition at 1 µM [5, 16]: 1.9%
- inhibition at 1 µM [5, 17]: 1.33%
- inhibition at 10 µM [5, 15]: 41.9%
- inhibition at 10 µM [5, 16]: 45.5%
- inhibition at 10 µM [5, 17]: 38.2%
- inhibition at 100 µM [5, 15]: 100%
- inhibition at 100 µM [5, 16]: 100%
- inhibition at 100 µM [5, 17]: 100%
